Data from patent US11517598B2 (priority 2016, dated 2022).
“Also recorded” adds a separate entry of the source. Read-outs that look alike come from different tables or passages of the source.

Tests used:
[1] = test system: oncolytic VSVΔ51 in 786-0 renal carcinoma cells
[2] = test system: Measles virus in 786-0 cells; format: cell-based, human
[3] = test system: VSVΔ51-GFP in CT26WT and DBT tumor cores; format: cell-based, mouse
[4] = test system: VSVΔ51-GFP in normal lung, muscle and spleen tissue cores; format: cell-based, mouse
[5] = test system: bilateral DBT tumors; details: mouse, in vivo
[6] = test system: HSV-1 (mutant N212) in 786-0 cells; format: cell-based, human
[7] = test system: VSVΔ51 matrix (M) mRNA in CT26-WT colon cancer cells; format: cell-based, mouse
[8] = test system: Sindbis virus in 786-0 cells; format: cell-based, human
[9] = test system: CXCL9 in various human cancer cell lines; format: cell-based
[10] = test system: STAT2; format: cell-based, human
[11] = test system: various human and rodent cancer cell lines
[12] = test system: STAT1; format: cell-based, human
[13] = test system: CT26WT, 4T1, DBT, and Pan02 tumors; details: mouse, in vivo
[14] = mouse, in vivo
[15] = test system: VSVwt in 786-0 cells; format: cell-based, human
[16] = test system: IFITM1; format: cell-based, human
[17] = test system: VSVΔ51 matrix (M) mRNA in 786-0 cells; format: cell-based, human
[18] = test system: VSVΔ51 in GM38 fibroblasts; format: cell-based, human
[19] = test system: CT26WT tumors; details: mouse
[20] = test system: CT26-LacZ tumors; details: mouse, in vivo
[21] = test system: cytokine, chemokine and IFN stimulated gene expression in 786-0 cells; format: cell-based, human

Chain of IFITM1 (P13164 whole entry): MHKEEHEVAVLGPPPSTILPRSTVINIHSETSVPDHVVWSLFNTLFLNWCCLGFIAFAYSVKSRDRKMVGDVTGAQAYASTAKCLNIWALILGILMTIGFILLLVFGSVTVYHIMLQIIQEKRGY

Compound: Tungsten [reference compound]
- VSVΔ51 growth (viral titer, GFP positive cell counts) [1]: neither Manganese, Molybdene, or Tungsten oxide salts could enhance VSVΔ51 growth

Compound: Sodium orthovanadate
- yield of Measles virus [2]: improved
- growth of VSVΔ51-GFP in tumor cores (fluorescence) [3]: robustly increased the growth of the virus in tumor cores
- growth of VSVΔ51-GFP in normal tissue cores (fluorescence) [4]: not in normal tissue cores
- tumor regression with monotherapy [5]: some tumors did regress
- virus-associated luminescence [5]: uniquely enhanced by vanadate in the injected tumors on the right side
- HSV-1 growth [6]: robustly inhibited
- VSVΔ51 matrix (M) protein mRNA and/or viral genomes [7]: increased the production of VSVΔ51 matrix (M) protein mRNA and/or viral genomes
- yield of Sindbis virus [8]: improved
- CXCL9 secretion (ELISA) [9]: vanadate-mediated increase
- IFNβ-induced phosphorylation of STAT2 [10]: inhibited the IFNβ-induced phosphorylation of STAT2
- STAT2 nuclear accumulation [10]: reduced its nuclear accumulation
- localisation of STAT-2 (immunofluorescence) [10]: remained mostly in the cytoplasm
- cytotoxicity (cell viability) with VSVΔ51 co-infection [11]: A similar effect
- IFN-β induced phosphorylation of STAT1 [12]: not altered by treatment with vanadate
- IFNβ-induced STAT1 phosphorylation and nuclear accumulation [12]: did not similarly affect STAT1
- localisation of activated STAT1 (immunofluorescence) [12]: translocated to the nucleus
- phosphorylation of STAT1 at baseline [12]: increased by vanadate at baseline
- survival, combination with VSVΔ51 [13]: significantly improved survival; also recorded: significantly prolonged over virus alone
- virus-associated luciferase gene expression (IVIS) [13]: robustly enhanced virus-associated luciferase gene expression
- toxicity [14]: evidence of toxicity was observed
- toxicity ([14]; pH 7): greatly reduced
- wtVSV yield [15]: modest improvements in wtVSV yield
- protein expression levels of IFITM1 [16]: potently repressed
- VSVΔ51 matrix (M) protein mRNA and/or viral genomes [17]: increased the production of VSVΔ51 matrix (M) protein mRNA and/or viral genomes
- VSVΔ51 viral growth in normal cells [18]: viral growth was not enhanced
- effect on viral growth when given post infection [1]: close to nil
- impact on viral growth with pre-treatment time [1]: increasingly evident with increasing pre-treatment time
- number of virus-infected cells (GFP) [1]: marked increase in the number of virus-infected cells
- pro-viral activity with metal chelating agent [1]: abrogated upon inclusion of L-Ascorbic Acid
- viral output (viral titer by plaque assay) [1]: significantly increase viral output
- virus-enhancing activity at different pH (protonation state) [1]: had no impact on its activity
- yield of VSVΔ51 in single and multi-step growth curves [1]: more robustly enhanced the yield of VSVΔ51 when provided at low multiplicity of infection (MOI) compared to high MOI
- T-cells within the tumor ([19]; in vivo): increased accumulation of T-cells within the tumor
- re-challenge of cured mice with the same cancer cells ([19]; in vivo): became immune to re-challenge
- in vivo virus-enhancing activity at pH 7 ([19]; pH 7): retained its activity
- enhancing effect on survival [20]: completely abrogated
- gene set-enrichment (GOrilla), compound alone [21]: induced inflammatory responses, and immune system processes

Compound: potassium permanganate [Manganese, reference compound]
- VSVΔ51 growth (viral titer, GFP positive cell counts) [1]: neither Manganese, Molybdene, or Tungsten oxide salts could enhance VSVΔ51 growth

Compound: Vanadium(IV) oxide sulfate hydrate [VS]
- VSVΔ51 growth (viral titer, GFP positive cell counts) [1]: effectively enhanced VSVΔ51 growth

Compound: CC(=O)N[C@@H](CS)C(=O)O [NAC, N-acetyl-L-cysteine, reference compound]
- effect of NAC on vanadate-enhanced viral spread (viral titer) [1]: did not abrogate vanadate's capacity to enhance viral spread

Compound: Vanadium(V) oxytriethoxide [VOx]
- VSVΔ51 growth (viral titer, GFP positive cell counts) [1]: effectively enhanced VSVΔ51 growth

Compound: Ammonium metavanadate
- VSVΔ51 growth (viral titer, GFP positive cell counts) [1]: effectively enhanced VSVΔ51 growth

Compound: Bis(maltolato) oxovanadium(IV) [BMOV]
- VSVΔ51 growth (viral titer, GFP positive cell counts) [1]: effectively enhanced VSVΔ51 growth

Compound: Chromium(VI) oxide [Chromium trioxide, reference compound]
- VSVΔ51 growth (viral titer) [1]: did enhance viral growth but only at a single dose tested
- toxicity (not shown) [1]: highly toxic in comparison to orthovanadate
